Among the data in ChEMBL document CHEMBL2157914, “Synthesis, anti-inflammatory and antimicrobial evaluation of novel 1-acetyl-3,5-diaryl-4,5-dihydro (1H) pyrazole derivatives bearing urea, thiourea and sulfonamide moieties” (2012) are inhibition, MIC and Ratio values, retold here.

Molecules are shown by their SMILES. Values after ≈ are worked out from the molar mass of the structure shown.

Assay [1] has as its system THP-1. Description: Antiinflammatory activity in human THP1 cells assessed as inhibition of LPS-stimulated TNFalpha production at 1 uM incubated for 30 mins prior to LPS-challenge measured 24 hrs post LPS-challenge by ELISA. The format is functional. On the technique in general: ELISA stands for enzyme-linked immunosorbent assay.
Assay [2] deals with THP-1. Description: Antiinflammatory activity in human THP1 cells assessed as inhibition of LPS-stimulated IL-6 production at 1 uM incubated for 30 mins prior to LPS-challenge measured 24 hrs post LPS-challenge by ELISA. The format is functional.
Assay [3] relates to Staphylococcus aureus. Kind of assay: Antibacterial activity against Staphylococcus aureus MTCC 96 after 24 hrs by agar well diffusion method. In kind it is functional. Conditions: MTCC 96, 24 h. On the technique in general: A growth-free zone around the sample is the usual read-out of agar diffusion tests.
Assay [4] deals with Staphylococcus aureus. Kind of assay: Ratio of ciprofloxacin MIC to compound MIC for Staphylococcus aureus MTCC 96. In kind it is functional.
Assay [5] has as its system Aspergillus flavus. Description: Antifungal activity against Aspergillus flavus MTCC 277 after 2 to 3 days by agar well diffusion method. The format is functional.
Assay [6] has as its system Escherichia coli. Description: Antibacterial activity against Escherichia coli MTCC 443 after 24 hrs by agar well diffusion method. Conditions: MTCC 443, 24 h. The format is functional.
Assay [7] deals with Fusarium solani. Kind of assay: Ratio of miconazole MIC to compound MIC for Fusarium solani MTCC 350. The format is functional.
The test system of assay [8] is Bacillus subtilis. Kind of assay: Ratio of ciprofloxacin MIC to compound MIC for Bacillus subtilis MTCC 441. The format is functional.
For assay [9], the system named is Bacillus subtilis. Description: Antibacterial activity against Bacillus subtilis MTCC 441 after 24 hrs by agar well diffusion method. In kind it is functional. As to conditions: MTCC 441, 24 h.
The subject of assay [10] is Salmonella typhimurium. Description: Ratio of ciprofloxacin MIC to compound MIC for Salmonella typhimurium MTCC 98. In kind it is functional, Salmonella enterica subsp. enterica serovar Typhimurium.
Assay [11] relates to Aspergillus flavus. Description: Ratio of miconazole MIC to compound MIC for Aspergillus flavus MTCC 277. In kind it is functional.
Assay [12] deals with Salmonella typhimurium. Description: Antibacterial activity against Salmonella typhimurium MTCC 98 after 24 hrs by agar well diffusion method. The format is functional, Salmonella enterica subsp. enterica serovar Typhimurium. Conditions: Salmonella enterica, MTCC 98, 24 h.
For assay [13], the system named is Aspergillus niger. Description: Antifungal activity against Aspergillus niger MTCC 281 after 2 to 3 days by agar well diffusion method. The format is functional.
Assay [14] concerns Candida albicans. Kind of assay: Antifungal activity against Candida albicans MTCC 227 after 2 to 3 days by agar well diffusion method. The format is functional.
Assay [15] relates to Escherichia coli. Description: Ratio of ciprofloxacin MIC to compound MIC for Escherichia coli MTCC 443. The format is functional.
Assay [16] has as its system THP-1. Kind of assay: Antiinflammatory activity in human THP1 cells assessed as inhibition of LPS-stimulated IL-6 production at 10 uM incubated for 30 mins prior to LPS-challenge measured 24 hrs post LPS-challenge by ELISA. The format is functional.
Assay [17] concerns THP-1. Kind of assay: Antiinflammatory activity in human THP1 cells assessed as inhibition of LPS-stimulated TNFalpha production at 10 uM incubated for 30 mins prior to LPS-challenge measured 24 hrs post LPS challenge by ELISA. The format is functional.
Assay [18] concerns Fusarium solani. Description: Antifungal activity against Fusarium solani MTCC 350 after 2 to 3 days by agar well diffusion method. The format is functional.

Regarding `C[C@@H]1C[C@H]2[C@@H]3CCC4=CC(=O)C=C[C@]4(C)[C@@]3(F)[C@@H](O)C[C@]2(C)[C@@]1(O)C(=O)CO` [DEXAMETHASONE], the inhibition at 1 µM in [1] came out at 76%; in assay [2], 84%.

In the case of `COc1ccc(C2=NN(C(C)=O)C(c3ccc(NS(=O)(=O)c4ccc(C(F)(F)F)cc4Cl)cc3)C2)cc1OC` (stereo not drawn), the minimal inhibitory concentration (MIC) turned out to be 15 µg/mL (≈ 25.8 µM) in assay [3]; 15 µg/mL (≈ 25.8 µM) in assay [5]; 10 µg/mL (≈ 17.2 µM) in [6]; 10 µg/mL (≈ 17.2 µM) in assay [9]; 15 µg/mL (≈ 25.8 µM) in assay [12]; 15 µg/mL (≈ 25.8 µM) in assay [13]. The minimum inhibitory concentration (MIC) in [14] was 40 µg/mL (≈ 68.7 µM); in assay [18], 10 µg/mL (≈ 17.2 µM). The Ratio was 1.3 in [4]; 1.3 in assay [7]; 1.5 in assay [8]; 1.3 in assay [10]; 1.5 in [11]; 1.5 in assay [15]. In addition, the inhibition at 10 µM came to 55% in assay [16] and 38% in assay [17].

Broadly, the inhibition is the drop in the measured response relative to a control, in per cent. The term MIC denotes the least concentration at which growth counts as inhibited. Higher therefore signals a less susceptible organism.
